Biological target: Beta-2 adrenergic receptor (Homo sapiens, UniProt P07550)
Experiment: Displacement of [3H]-CGP-12177 from human beta2-adrenergic receptor

Beta-2 adrenergic receptor, sequence (P07550 whole entry): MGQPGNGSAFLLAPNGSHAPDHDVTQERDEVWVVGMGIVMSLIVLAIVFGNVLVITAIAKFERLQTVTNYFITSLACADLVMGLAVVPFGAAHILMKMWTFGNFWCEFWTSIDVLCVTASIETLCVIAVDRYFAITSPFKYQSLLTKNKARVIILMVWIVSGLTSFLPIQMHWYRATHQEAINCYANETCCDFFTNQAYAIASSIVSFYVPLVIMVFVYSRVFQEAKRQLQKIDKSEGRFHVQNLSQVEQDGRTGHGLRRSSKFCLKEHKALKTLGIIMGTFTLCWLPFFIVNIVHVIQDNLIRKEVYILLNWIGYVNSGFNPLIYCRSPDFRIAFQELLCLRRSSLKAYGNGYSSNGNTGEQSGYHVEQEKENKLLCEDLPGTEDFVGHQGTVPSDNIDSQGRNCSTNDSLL

Question: With `COc1cc2c(cc1OC)[C@H]([C@H](O)c1ccccc1Cl)NCC2` as the compound, how does the IC50 read?
Answer: > 10 µM

— ChEMBL document CHEMBL4257493, “Discovery of 7-hydroxyaporphines as conformationally restricted ligands for beta-1 and beta-2 adrenergic receptors” (Medchemcomm, 2018)
